Assay results reported in patent US20120238488A1, “COMPOUNDS AND METHODS FOR TREATING NEOPLASIA” (priority 2009, published 2012).
Where two headings read alike, the source gives them in different places.

Experiments:
[1] = biological target: Na+/K+-ATPase (Adenosine 5′-Triphosphatase isolated from porcine cerebral cortex); assay: Na+/K+-ATPase inhibitory activity, colorimetric Adenosine 5'-Triphosphatase Enzymatic Assay; type: biochemical; settings: for IC50: read-out: Na+K+ ATPase inhibitory activity IC50
Protocol: The inhibitory effect of a compound of the invention on ATPase activity was assessed in vitro using the colorimetric Adenosine 5′-Triphosphatase Enzymatic Assay of Sigma (St. Louis, Mo.) according to the manufacturer's instructions. This assay utilizes Adenosine 5′-Triphosphatase isolated from porcine cerebral cortex. Each reaction was performed in a final volume of 250 μl using 0.5 units/ml enzyme in the presence of different inhibitors. […] IC50 values were determined using the Origin® program software (OriginLab, Northampton, Mass.).

[2] = system: A549 (Lung); assay: SRB assay, A549; type: cell-based, human; settings: for TGI / GI50: A549, SRB, 48 h; for CC50 / GI50: Homo sapiens; for CC50: A549, 48 h, read-out: LC50
Protocol: (§1) SRB assays were performed according to standard National Cancer Institute Guidelines. Briefly, human tumor cells from different cancer panels were seeded into 96 well plates in 100 μL (plating densities ranging from 5-40,000 cells/well depending on the doubling time of individual cell lines) in serum-containing media for twenty-four hours prior to the addition of the compounds to be assayed. After 24 hours, one plate of each cell line was fixed in situ with trichloroacetic acid (TCA). The fixed slides were used to determine the cell population for each cell line at the time of drug addition (Tz). Each compound to be tested was solubilized in DMSO and the desired concentration was then added to the medium and diluted serially 1:10 to provide a total of five or ten drug concentrations plus control (in a final volume of 200 μL). The starting dose before any dilution was 100 uM for all compounds.
(§2) Following drug addition, each culture was incubated for forty-eight hours. The assay was terminated with the addition of cold TCA. The supernatant was discarded, and the plates were washed with tap water and air dried. Sulforhodamine B (SRB) solution was then added to each well. After staining, the bound stain was solubilized and the absorbance was read on an automated plate reader at a wavelength of 515 nm.
(§3) Using the absorbance measurements [time zero, (Tz), control growth, (C), and test growth in the presence of drug at the ten concentration levels (Ti)], the percentage growth was calculated at each of the drug concentrations levels. Percentage growth inhibition was calculated as:
(§4) [(Ti−Tz)/(C−Tz)]×100 for concentrations for which Ti>/=Tz
(§5) [(Ti−Tz)/Tz]×100 for concentrations for which Ti<Tz.
(§6) Three dose response parameters were calculated for each experimental agent. Growth inhibition of 50% (GI50) was calculated from [(Ti−Tz)/(C−Tz)]×100=50, which was the drug concentration resulting in a 50% reduction in the net protein increase (as measured by SRB staining) in control cells during the drug. The drug concentration resulting in total growth inhibition (TGI) was calculated from Ti=Tz. The LC50 (concentration of drug resulting in a 50% reduction in the measured protein at the end of the drug treatment as compared to that at the beginning) indicating a net loss of cells following treatment was calculated from [(Ti−Tz)/Tz]×100=−50.
(§7) Values were calculated for each of these three parameters when the level of activity was reached; however, if the effect was not reached or was exceeded, the value for that parameter was expressed as greater or less than the maximum or minimum concentration tested.
(§8) Table 4 summarizes results characterizing the effects of compound Nos. 120, 12, 61, 1, and 56 on GI50, which measures the cell growth inhibitory power of the compound, TGI, which measures cytostatic effect (TGI) and LC50, which signifies cytotoxic effect. Each of these parameters in Table 4 was calculated in a sulforhodamine B (SRB) assay, which provides a colorimetric measure of a compound's anti-cancer activity. SRB assays were performed with compounds of the invention in 22 different cell lines (shaded in light gray in Table 4), which represent nine different tumor panels (lung, melanoma, ovary, prostate, CNS, breast, pancreas colon and renal). Ouabain and digoxin were used as controls. Paclitaxel was added as a non-Na^+K^+-ATPase inhibitor control.

[3] = system: ERVK (Lung); assay: SRB assay, ERVK; type: cell-based, human; settings: 48 h; for TGI / GI50: ERVK, SRB; for CC50 / GI50: Homo sapiens; for CC50: read-out: LC50
Protocol: as §1, §2, §3, §4, §5, §6, §7, §8

[4] = system: SKMEL28 (Melanoma); assay: SRB assay, SKMEL28; type: cell-based, human; settings: for CC50 / GI50: Homo sapiens; for CC50: SK-MEL-28, 48 h, read-out: LC50; for GI50: SK-MEL-28; for GI50 / TGI: SKMEL28, SRB, 48 h
Protocol: as §1, §2, §3, §4, §5, §6, §7, §8

[5] = system: MB435 (Melanoma); assay: SRB assay, MB435; type: cell-based, human; settings: 48 h; for CC50 / GI50: Homo sapiens; for CC50: read-out: LC50; for GI50 / TGI: MB435, SRB
Protocol: as §1, §2, §3, §4, §5, §6, §7, §8

[6] = system: OVCAR5 (Ovary); assay: SRB assay, OVCAR5; type: cell-based, human; settings: for CC50 / GI50: Homo sapiens; for CC50: OVCAR-5, 48 h, read-out: LC50; for GI50: OVCAR-5; for GI50 / TGI: OVCAR5, SRB, 48 h
Protocol: as §1, §2, §3, §4, §5, §6, §7, §8

[7] = system: OVCAR3 (Ovary); assay: SRB assay, OVCAR3; type: cell-based, human; settings: for CC50 / GI50: Homo sapiens; for CC50: OVCAR-3, 48 h, read-out: LC50; for GI50: OVCAR-3; for GI50 / TGI: OVCAR3, SRB, 48 h
Protocol: as §1, §2, §3, §4, §5, §6, §7, §8

[8] = system: ADRRES (Ovary); assay: SRB assay, ADRRES (multidrug resistant NCI-ADR-RES); type: cell-based, human; settings: for TGI / GI50: ADRRES; for TGI / CC50 / GI50: 48 h; for CC50 / GI50: Homo sapiens, NCI/ADR-RES; for CC50: read-out: LC50
Protocol: NCI-ADR-RES cells have been classified as ovarian cancer cells by the National Cancer Institute.
as §1, §2, §3, §4, §5, §6, §7, §8
Table 4 also presents results with Compound Nos. 120, 12, 61, 1, and 56 in a well characterized drug resistant cell line, NCI-ADR-RES, that expresses high levels of MDR1 and P-glycoprotein.

[9] = system: DU145 (Prostate); assay: SRB assay, DU145; type: cell-based, human; settings: for TGI / GI50: DU145, SRB, 48 h; for CC50 / GI50: Homo sapiens; for CC50: DU-145, 48 h, read-out: LC50; for GI50: DU-145
Protocol: as §1, §2, §3, §4, §5, §6, §7, §8

[10] = system: PCJ (Prostate); assay: SRB assay, PCJ; type: cell-based; settings: Homo sapiens, 48 h; for CC50: read-out: LC50; for GI50 / IC (TGI): PCJ, SRB
Protocol: as §1, §2, §3, §4, §5, §6, §7, §8

[11] = system: SF268 (CNS); assay: SRB assay, SF268; type: cell-based; settings: Homo sapiens; for CC50: read-out: LC50; for IC (TGI): read-out: TGI
Protocol: as §1, §2, §3, §4, §5, §6, §7, §8

[12] = system: HCT116 (Colon); assay: SRB assay, HCT116; type: cell-based; settings: Homo sapiens; for CC50: HCT-116, 48 h, read-out: LC50; for GI50 / IC (TGI): HCT-116, HCT116, SRB, 48 h
Protocol: as §1, §2, §3, §4, §5, §6, §7, §8

[13] = system: CAKJ1 (Renal); assay: SRB assay, CAKJ1; type: cell-based, human; settings: 48 h; for TGI / GI50: CAKJ1, SRB; for CC50 / GI50: Homo sapiens; for CC50: read-out: LC50
Protocol: as §1, §2, §3, §4, §5, §6, §7, §8

[14] = SF-268, SF268, SRB, 48 h, read-out: GI50

SMILES	TGI [2] [nM]	CC50 [2] [nM]	GI50 [2] [nM]	CC50 [4] [nM]	GI50 [4] [nM]	TGI [4] [nM]	TGI ([8]; SRB) [nM]	CC50 [8] [nM]	GI50 ([8]; SRB) [nM]	TGI [9] [nM]	CC50 [9] [nM]	GI50 [9] [nM]	CC50 [10] [nM]	GI50 [10] [nM]	IC (TGI) [10] [nM]	CC50 ([11]; SF-268, 48 h) [nM]	CC50 [12] [nM]	GI50 [12] [nM]	IC (TGI) [12] [nM]	TGI [13] [nM]	other results
C[C@H]1O[C@@H](O[C@H]2[C@@H](O)C[C@H](O[C@H]3[C@@H](O)C[C@H](O[C@H]4CC[C@@]5(C)[C@H](CC[C@@H]6[C@@H]5C[C@@H](O)[C@]5(C)[C@@H](C7=CC(=O)OC7)CC[C@]65O)C4)O[C@@H]3C)O[C@@H]2C)C[C@H](O)[C@@H]1O [Digoxin, reference compound]	60	1140	< 1	> 100000	80	6500	100	750	40	70	360	30	300	< 80	100	100	> 50000	< 80	700	70	IC50 [1]: 204 nM; TGI [3]: 90 nM; CC50 [3]: 680 nM; GI50 [3]: < 10 nM; CC50 [5]: 7690 nM; GI50 [5]: 70 nM; TGI [5]: 530 nM; CC50 [6]: 840 nM; GI50 [6]: < 10 nM; TGI [6]: 430 nM; CC50 [7]: 22200 nM; GI50 [7]: < 10 nM; TGI [7]: 2650 nM; GI50 ([11]; SF-268, 48 h): < 80 nM; IC (TGI) ([11]; SF-268, 48 h): < 80 nM; CC50 [13]: 200 nM; GI50 [13]: < 10 nM
C[C@]12CCC(=NOC3CCNC3)CC1CCC1C2CC[C@]2(C)C(=O)CCC12 (stereo partly drawn) [Compound 56, (10S,13S)-10,13-dimethyl-3-(pyrrolidin-3-yloxyimino)tetradecahydro-1H-cyclopenta[a]phenanthren-17(2H)-one]	4	8.2	< 1	3740	40.9	225.3	49.1	90.8	9.3	22	70.6	5	936	33.2	387	810	762	5.8	70.5	26.5	Na+K+ ATPase inhibitory activity (in words) [1]: very potent Na+K+ ATPase inhibitors; IC50 [1]: 101 nM; TGI [3]: 62.8 nM; CC50 [3]: 288 nM; GI50 [3]: 17.9 nM; CC50 [5]: 668 nM; GI50 [5]: 48.5 nM; TGI [5]: 218.2 nM; CC50 [6]: 740 nM; GI50 [6]: 74.9 nM; TGI [6]: 341.1 nM; CC50 [7]: 170 nM; GI50 [7]: 2.9 nM; TGI [7]: 11.4 nM; anti-tumor action in multidrug resistant cell line NCI-ADR-RES ([8]; SRB, cells express high levels of MDR1 and P-glycoprotein): potent anti-tumor action; GI50 [11, 14]: 56.7 nM; IC (TGI) ([11]; SF-268, SF268, SRB, 48 h): 349 nM; CC50 [13]: 172 nM; GI50 [13]: < 1 nM
CC(=O)O[C@H]1C(=O)[C@@]2(C)[C@H]([C@H](OC(=O)c3ccccc3)[C@]3(O)C[C@H](OC(=O)[C@H](O)[C@@H](NC(=O)c4ccccc4)c4ccccc4)C(C)=C1C3(C)C)[C@]1(OC(C)=O)CO[C@@H]1C[C@@H]2O [Paclitaxel, reference compound]	6138.4	15300	< 1	> 10000	2300	>10000	5803.4	10600	1050	8.6	143	< 1	> 10000	< 100	> 10000	> 10000	> 10000	< 100	2240	4969	GI50 [11, 14]: < 100 nM; IC (TGI) ([11]; SF-268, SF268, SRB, 48 h): 1930 nM; CC50 [13]: 11600 nM; GI50 [13]: < 1 nM
